{"source": "patent US5504244A", "about": "“Alkylarylketo acids” (Boehringer Ingelheim Pharmaceuticals, Inc., priority 1993, dated 1996)", "test_system": "guinea pig ileal strips", "experiment": "Modified Schultz-Dale Assay: inhibition of antigen-induced anaphylactic contraction of passively sensitized ileal strips", "format": "cell-based", "details": "Cavia porcellus; for IC50: value in parentheses", "protocol": "In the classic Schultz-Dale assay, guinea pigs are sensitized with a known immunogen or passively sensitized with guinea pig antiserum to the immunogen, strips of ilea are recovered, and the extent of their contraction in response to a challenge exposure to the same antigen is observed as a measure of anaphylactic response. The experiments described here follow this same procedure while exposing the ileal strips to test compound before exposure to antigen challenge (preincubation) and, in some strips, also after antigen challenge (postincubation).\nThe male Hartley strain guinea pigs (450-650 g) whose ilea are used in this Schultz-Dale assay are passively sensitized with IgE antiovalbumin antiserum as follows. The antiserum is developed in another group of similar guinea pigs as described in Graziano, et al., J. Immunol. 127:1067-1070 (1981) and pooled. The test animals are then each passively sensitized by subcutaneous injection of the pooled antiserum (1 ml).\nAbout 2-7 days after sensitization, the guinea pigs are sacrificed and the terminal ilea are removed. They are cut into strips (6 cm) and positioned in tissue baths (5 ml) of Tyrode's solution with atropine (1 μg/ml) at 37° C. One end of each strip is fixed to an immobile post and the other movably mounted to a Grass Ft. 0.03 linear force displacement transducer and a Grass Model 7 polygraph. The tension is set (at 1 gram) and the tissue is allowed to equilibrate (10 minutes). Tissue viability is tested by establishing a consistent response to histamine (0.5 μg/ml). After several histamine-induced contractions, mepyramine (1 μg/ml) is added to inhibit any contractions due to the anaphylactic release of endogenous histamine.\nA minimum of 3 animals are used for each compound tested and, of the 6 strips from each animal, 2 strips are incubated (preincubation) with a test compound (final concentration 75 μM), 2 with an appropriate reference standard (BW-755C at 75 μM) and 2 with saline solution (control) for a predetermined period (5 minutes). After this initial incubation period, ovalbumin (100 μg/ml) is added to each bath and the resulting anaphylactic contraction measured. The data are recorded as of tension produced by the tissue in excess of the 1 gram tension that was initially set. At the peak of the contraction, a dose of the same test compound (75 μM) is added (postincubation) to one control strip and reference standard (FPL-55712 at 1.9 μM). The strips are monitored (1 minute) and any effect on the established contraction is recorded as described above.\nTwo types of data are derived from the above protocol. First, pre-antigen inhibition (prechallenge) is expressed as the percent inhibition in each of the strips preincubated with test compound measured against the averaged contractions of the two control strips. Prechallenge inhibition by the reference standard is also determined in each experiment as a positive control. The reference used consistently gives 60-80% inhibition. Second, post-antigen inhibition (postchallenge) is determined by measuring the decrease in anaphylactic contraction of a control strip produced by adding either a test compound or standard at the peak of the contraction. The reference used consistently gives 70-90% inhibition. The data in each experiment, therefore, consists of 2 prechallenge and 1 postchallenge value for both test compound and standard.", "key": {"[1]": {"details": "added at peak of contraction after antigen, read-out: Postchallenge mean percent inhibition"}, "[2]": {"details": "preincubation before ovalbumin antigen, read-out: Prechallenge mean percent inhibition"}, "[3]": {"details": "added at peak of contraction after antigen, read-out: Postchallenge IC50"}, "[4]": {"details": "preincubation before ovalbumin antigen, read-out: Prechallenge IC50"}}, "note": "Read-outs that look alike come from different tables or passages of the source.", "data": [{"smiles": "NC1=NN(c2cccc(C(F)(F)F)c2)CC1", "note": "[BW-755C, reference compound]", "values": [{"measurement": "inhibition at 75 µM", "setting": "positive control, preincubation, read-out: Prechallenge inhibition by the reference standard", "result": "60 to 80", "unit": "%"}]}, {"smiles": "CCCCOc1ccc(C(=O)c2cccc(C(=O)O)c2)c(O)c1", "note": "[Example 26, 3-(4-Butoxy-2-hydroxybenzoyl)benzoic acid]", "values": [{"measurement": "inhibition at 75 µM", "setting": "[1]", "result": 59, "unit": "%"}, {"measurement": "inhibition at 75 µM", "setting": "[2]", "result": 85, "unit": "%"}]}, {"smiles": "CCCCOc1cc(OC)ccc1C(=O)c1cccc(C(=O)O)c1", "note": "[Example 28, 3-(2-Butoxy-4-methoxybenzoyl)benzoic acid]", "values": [{"measurement": "inhibition at 75 µM", "setting": "[1]", "result": 35, "unit": "%"}, {"measurement": "inhibition at 75 µM", "setting": "[2]", "result": 61, "unit": "%"}]}, {"smiles": "CCCCCCOc1cc(C)ccc1C(=O)c1cccc(C(=O)O)c1", "note": "[Example 31, 3-(2-n-Hexyloxy-4-methylbenzoyl)-benzoic acid]", "values": [{"measurement": "inhibition at 75 µM", "setting": "[1]", "result": 59, "unit": "%"}, {"measurement": "inhibition at 75 µM", "setting": "[2]", "result": 81, "unit": "%"}, {"measurement": "IC50", "setting": "[3]", "result": "> 75", "unit": "µM"}, {"measurement": "IC50", "setting": "[4]", "result": 44, "unit": "µM"}]}, {"smiles": "CCCCCCCc1ccc(C(=O)c2cccc(-c3nn[nH]n3)c2)cc1", "note": "[Example 36, 5-3-(4-n-Heptylbenzoyl)phenyl!tetrazole]", "values": [{"measurement": "inhibition at 75 µM", "setting": "[1]", "result": 14, "unit": "%"}, {"measurement": "inhibition at 75 µM", "setting": "[2]", "result": 85, "unit": "%"}, {"measurement": "IC50", "setting": "[3]", "result": "> 75", "unit": "µM"}, {"measurement": "IC50", "setting": "[4]", "result": 7, "unit": "µM"}]}, {"smiles": "CCCc1c(OCC(O)COc2ccc3c(=O)cc(C(=O)O)oc3c2CCC)ccc(C(C)=O)c1O", "note": "(centres unmarked) [FPL-55712, reference compound]", "values": [{"measurement": "inhibition at 1.9 µM", "setting": "1.9 μM, positive control, added at peak of contraction, read-out: Postchallenge inhibition by the reference standard", "result": "70 to 90", "unit": "%"}]}]}
